Patent EP2241555A1, “New RAC1 inhibitors as potential pharmacological agents for heart failure treatment” (UNIVERSITA' DEGLI STUDI DI MILANO, priority 2009, dated 2010)
Read-outs that look alike come from different tables or passages of the source. Blank lines part the entries; values can stand above or below the compound they belong to.

Experiments:
Caco2 = Caco2 monolayer permeation; format: in vitro ADME, human; settings: Caco2 monolayers, 90 min, start concentration 50 µM
Protocol: (§1) The permeation characteristics of the Rac1 inhibitors were determined first in the artificial system PAMPA (Parallel Artificial Membrane Permeability Assay) which uses a membrane covered with a lipid to simulate the lipid bilayer of various cell types, including intestinal epithelium and second in vitro across Caco2, a human colon carcinoma cell line seeded as monolayers onto polycarbonate membranes. The PAMPA is able to predict the ability of a compound to permeate by a passive transcellular transport through an artificial lipid layer assembled on a membrane and also allows a classification into low (flux <20%), medium (20%≤ flux ≤70%), and high (flux >70%) absorbing substances. The Caco2 assay provides a well-established in vitro model to predict the human intestinal absorption.

[1] = Caco2 monolayer permeation; format: in vitro ADME, human; settings: human, Caco-2, Caco2 monolayers, start concentration 50 µM
Protocol: as §1

HL-1 cells = test: Apoptosis of ischemic HL-1 cardiomyocytes (TUNEL assay, flow cytometer); format: cell-based, mouse; settings: 100 µM; 8 h ischemia (glucose deficient medium + hydrogen peroxide); 8h Ischemia alone 701.6, 8h Control 100
Protocol: To establish a cardiomyocytes based apoptosis assay, which mimics the post-ischemic damage observed after myocardial infarction, we have utilized a cardiac muscle cell line, HL-1 cells, derived from the AT-1 mouse atrial cardiomyocyte tumor lineage. The HL-1 cells were incubated in glucose deficient medium in the presence of hydrogen peroxide and either in presence or absence of compounds of the invention Apoptosis rate of ischemic HL-1 cells was normalised to the apoptosis rate of the 8h control cells under non-ischemic conditions, thus incubated with normal concentration of glucose in the absence of hydrogen peroxide. Both non-ischemic and ischemic HL-1 cultures were harvested after 8 hours. […] The apoptotic rates were then evaluated by TUNEL assay, a method for detecting DNA strand breaks in apoptotic cells by flow cytometer The solvent of the compounds, i.e DMSO, has no influence on the apoptosis rate. […] Effect of newly synthesized compounds with Rac1 inhibitory activity on apoptosis rate in HL-1 cells normalized to control (TUNEL-assay) The data are representative of two experiments.

[2] = PAMPA (Parallel Artificial Membrane Permeability Assay); format: in vitro ADME; settings: start concentration 250 µM, diffusion period 16 h
Protocol: as §1
The flux rate of the compounds of the invention and the reference NSC23766 was measured from a donor compartment to an acceptor compartment across the lipid layer at a start concentration of 250 µM over a diffusion period of 16 h.

HepG2 cells = test: Resazurine cytotoxicity assay (metabolic activity), HepG2; format: cell-based, human; settings: for toxic classification / MVC / EC50: HepG2, 24 h; for toxic classification: classification in words in the text; for MVC: maximal viability concentration; for Cytotoxicity-Classification: HepG2, 24 h exposure; for EC50: Homo sapiens
Protocol: (§2) For a pre-screening of the compounds they were first tested in human hepatocellular carcinoma cells (HepG2 cells)for 24 h and to gain further information about the cytotoxic potential more specific target tissues like the mouse cardiomyocytes HL-1 and primary rat cardiomyocytes were used additionally. […] The toxicity classification has been determined by using drugs currently utilized in clinic with known toxicity profile

Rac1 = biological target: T1, Rac1 (Homo sapiens, UniProt P63000); test: G-LISA assay of intracellular Rac1-GTP in PDGF-BB stimulated human smooth muscle cells; format: cell-based; settings: for remaining activity at 100 µM: Concentration 100 µm; for remaining activity at 100 µM / remaining activity at 50 µM: read-out: Rac1 inhibitory activity (% vs control); for inhibitory action on Rac1 activity: G-LISA, 50 µM, statement in words
T1 construct: endogenous in cells; host or cells: human cultured smooth muscle cells, stimulated with PDGF-BB
Description: The intracellular amount of Rac1-GTP has been determined using the GLISA™ assay (Cytoskeleton, Inc). The GLISA™ assay uses a 96-well plate coated with RBD domain of Rac1-family effector protein PAK1. […] A significant inhibition on Rac1 activity should decrease the intracellular levels of Rac1-GTP and therefore reduce the percentage of Rac1-GTP detected compared to control untreated cells.

[3] = tested on: primary rat cardiomyocytes; test: Resazurine cytotoxicity assay (metabolic activity), primary rat cardiomyocytes; format: cell-based; settings: for MVC / EC50: 24 h; for MVC: maximal viability concentration; for Cytotoxicity-Classification: 24 h exposure; for EC50: Cardiomyocyte, metabolic activity
Protocol: as §2

HL-1 = test: Resazurine cytotoxicity assay (metabolic activity), HL-1; format: cell-based, mouse; settings: for MVC / EC50: HL-1, 24 h; for MVC: maximal viability concentration; for Cytotoxicity-Classification: HL-1, 24 h exposure; for EC50: Mus musculus, metabolic activity
Protocol: as §2

[4] = tissue homogenate, 60 min, 10 µM
Protocol: The basic incubation mixture with total volume of 500 µl consisted of the following components. 100 µl liver homogenate, compound in DMSO (dimethyl sulfoxide) and 1 mM NADPH (reduced nicotinamide adenine dinucleotide phosphate), 1 mM UDPGA (uridine 5'-diphosphoglucuronic acid), 1 mM PAPS (3'-phosphoadenosine-5'-phosphosulfate) and 1 mM GSH (glutathione). The substrate concentration used was 10 µM. Two parallel incubations, one with cofactors and one without, were made. Final DMSO concentration in the incubation was 1 µM. […] Reaction was started by addition of a cofactor mixture and stopped by adding 250 µl of ice-cold acetonitrile.

[5] = 4 hours incubation, then PDGF-BB 10 ng/ml, Rac1-GTP detected relative to control (100), lower = more inhibition
[6] = Concentration 50 µm, 4 hours incubation, then PDGF-BB 10 ng/ml, Rac1-GTP detected relative to control (100), lower = more inhibition
[7] = metabolic activity, read-out: EC50

Structure (SMILES): CCN(CC)CCCC(C)Nc1nc(C)cc(Nc2ccc3nc(C)cc(N)c3c2)n1 (racemic) [NSC23766, reference compound]
Caco2 Classification (Caco2): medium (compounds with Papp between 1 and 10 are moderately absorbed (20 - 70%))
Papp at 90 min, 50 µM [1]: 24 ± 42 nm/s
Relative rate of apoptosis normalised to control [%] (HL-1 cells): 546.5%
PAMPA classification [2]: low (low (flux <20%))
PAMPA flux [%] ± SD [2]: 11±4%
toxic classification (HepG2 cells): not toxic (not toxic (EC50 > 500 µM))
MVC (HepG2 cells): 31.2 µM
Cytotoxicity-Classification (HepG2 cells): no (EC50 > 500 µM, (no))
EC50 (HepG2 cells): > 500 µM

Structure (SMILES): CCN(CC)CCCC(C)Nc1nc(C)cc(Nc2ccc3nc(C)cc(O)c3c2)n1 (stereo not drawn) [CWB005/02039, 6-[2-(4-Diethylamino-1-methyl-butylamino)-6-methyl-pyrimidin-4-ylamino]-2-methyl-quinolin-4-ol]
remaining activity at 50 µM (Rac1; [6]): 106%

Structure (SMILES): CCN(CC)CCCNc1nc(C)cc(Oc2ccc3nc(C)ccc3c2)n1 [CWB011/01023, N,N-Diethyl-N'-[4-methyl-6-(2-methyl-quinolin-6-yloxy)-pyrimidin-2-yl]-propane-1,3-diamine]
remaining activity at 50 µM (Rac1; [6]): 94.8%

Structure (SMILES): c1cc(NCc2ccc3[nH]ccc3c2)nc(NCc2ccc3[nH]ccc3c2)n1 [CWB020/01041, N2,N4-Bis-(1H-indol-5-ylmethyl)-pyrimidine-2,4-diamine]
Caco2 Classification (Caco2): high (compounds with a Papp >10 are predicted to be well absorbed (70 - 100%))
Papp at 90 min, 50 µM [1]: 659 ± 31 nm/s
remaining activity at 50 µM (Rac1; [6]): 17.1%
inhibitory action on Rac1 activity (Rac1): significant end efficient inhibitory action
PAMPA classification [2]: high (high (flux >70%))
PAMPA flux [%] ± SD [2]: 54±4%
MVC [3]: 3.9 µM
Cytotoxicity-Classification [3]: ++ (10 µM < EC50 ≤ 100 µM, medium (++))
EC50 [3]: 17 µM
MVC (HepG2 cells): 7.8 µM
Cytotoxicity-Classification (HepG2 cells): ++ (10 µM < EC50 ≤ 100 µM, medium (++))
EC50 (HepG2 cells; [7]): 64 µM
MVC (HL-1): 15.6 µM
Cytotoxicity-Classification (HL-1): ++ (10 µM < EC50 ≤ 100 µM, medium (++))
EC50 (HL-1): 39 µM
remaining LC/MS peak area (relative to 0 min incubation samples, %) [4]: 33-41%

Structure (SMILES): CCN(CC)CCCC(C)Nc1nccc(Oc2ccc3ccccc3c2)n1 (stereo not drawn) [CWB019/01037]
Remaining Rac1-GTP (% of control) (Rac1; [6]): 101.3%

Structure (SMILES): CCN(CC)CCCC(C)Nc1nc(C)cc(N2CCCCC2)n1 (stereo not drawn) [CWB008/02044, N1,N1-Diethyl-N4-(4-methyl-6-piperidin-1-yl-pyrimidin-2-yl)-pentane-1,4-diamine]
remaining activity at 50 µM (Rac1; [6]): 95.8%

Structure (SMILES): CCN(CC)CCCC(C)Nc1nc(C)cc(Oc2ccc3nc(C)ccc3c2)n1 (stereo not drawn) [CWB001/01018, N1,N1-Diethyl-N4-[4-methyl-6-(2-methyl-quinolin-6-yloxy)-pyrimidin-2-yl]-pentane-1,4-diamine]
remaining activity at 50 µM (Rac1; [6]): 102%

Structure (SMILES): CCN(CC)CCCC(C)Nc1nc(C)cc(NCCc2c[nH]c3ccccc23)n1 (stereo not drawn) [CWB002/02038, N2-(4-Diethylamino-1-methyl-butyl)-N4-[2-(1H-indol-3-yl)-ethyl)-6-methylpyrimidine-2,4-diamine]
remaining activity at 50 µM (Rac1; [6]): 109%

Structure (SMILES): Cc1cc(Nc2ccc3nc(C)cc(O)c3c2)nc(NCCc2c[nH]c3ccccc23)n1 [CWB006/02035, 6-{2-[2-(1H-Indol-3-yl)-ethylamino]-6-methyl-pyrimidin-4-ylamino}-2-methyl-quinolin-4-ol]
remaining activity at 50 µM (Rac1; [6]): 91.5%

Structure (SMILES): COC(=O)C(CC(C)C)Nc1cc(C)nc(Nc2ccc3ncccc3c2)n1 (stereo not drawn) [CWB018/01034, 4-Methyl-2-[6-methyl-2-(quinolin-6-ylamino)-pyrimidin-4-ylamino]-pentanoic acid methyl ester]
Caco2 Classification (Caco2): high (compounds with a Papp >10 are predicted to be well absorbed (70 - 100%))
Papp at 90 min, 50 µM [1]: 205 ± 19 nm/s
remaining activity at 50 µM (Rac1; [6]): 34.2%
inhibitory action on Rac1 activity (Rac1): significant end efficient inhibitory action
PAMPA classification [2]: high (high (flux >70%))
PAMPA flux [%] ± SD [2]: 85±11%
MVC [3]: 31.2 µM
Cytotoxicity-Classification [3]: ++ (10 µM < EC50 ≤ 100 µM, medium (++))
EC50 [3]: 85 µM
toxic classification (HepG2 cells): low toxic (low toxic (100 µM < EC50 ≤ 500 µM))
MVC (HepG2 cells): 62.5 µM
Cytotoxicity-Classification (HepG2 cells): + (100 µM < EC50 ≤ 500, low (+))
EC50 (HepG2 cells; [7]): 162 µM
MVC (HL-1): 15.6 µM
Cytotoxicity-Classification (HL-1): ++ (10 µM < EC50 ≤ 100 µM, medium (++))
EC50 (HL-1): 68 µM

Structure (SMILES): CCN(CC)CCCC(C)Nc1nc(C)cc(Nc2ccc3ncccc3c2)n1 (stereo not drawn) [CWB003/01020, N2-(4-Diethylamino-1-methyl-butyl)-6-methyl-N4-quinolin-6-yl-pyrimidine-2,4-diamine]
remaining activity at 50 µM (Rac1; [6]): 93.8%

Structure (SMILES): CCN(CC)CCCC(C)Nc1nc(C)cc(N2CCOCC2)n1 (stereo not drawn) [CWB007/02040, N1,N1-Diethyl-N4-(4-methyl-6-morpholin-4-yl-pyrimidin-2-yl)-pentane-1,4-diamine]
remaining activity at 50 µM (Rac1; [6]): 101%

Other lines, results leading:

remaining activity at 100 µM (Rac1; [5]): 98%
Structure (SMILES): CCN(CC)CCCC(C)Nc1nccc(Nc2ccc3cc[nH]c3c2)n1 (stereo not drawn) [CWB023/02053, N2-(4-Diethylamino-1-methyl-butyl)-N4-(1H-indol-6-yl)-pyrimidine-2,4-diamine]

remaining activity at 100 µM (Rac1; [5]): 123%
Structure (SMILES): CCN(CC)CCCC(C)Nc1nc(C)cc(NCCc2c[nH]c3ccc(O)cc23)n1 (stereo not drawn) [CWB025/02056, 3-{2-[2-(4-Diethylamino-1-methyl-butylamino)-6-methyl-pyrimidin-4-ylamino]-ethyl}-1H-indol-5-ol]

remaining activity at 100 µM (Rac1; [5]): 111%
Structure (SMILES): CCN(CC)CCCC(C)Nc1cc(C)nc(NCCc2c[nH]c3ccc(O)cc23)n1 (stereo not drawn) [CWB027/02058, 3-{2-[4-(4-diethylamino-1-methyl-butylamino)-6-methyl-pyrimidin-2-ylamino]-ethyl}-1H-indol-5-ol]

remaining activity at 50 µM (Rac1; [6]): 93.2%
Structure (SMILES): CCN(CC)CCCC(C)Nc1cc(C)nc(N2CCOCC2)n1 (stereo not drawn) [CWB016/02046, N1,N1-Diethyl-N4-(6-methyl-2-morpholin-4-yl-pyrimidin-4-yl)-pentane-1,4-diamine]

remaining activity at 50 µM (Rac1; [6]): 83.9%
Structure (SMILES): CCN(CC)CCCC(C)Nc1nc(C)cc(NCC(=O)O)n1 (stereo not drawn) [CWB015/01031, [2-(4-Diethylamino-1-methyl-butylamino)-6-methyl-pyrimidin-4-ylamino]-acetic acid]

remaining activity at 50 µM (Rac1; [6]): 92.9%
Structure (SMILES): CCOC(=O)CNc1cc(C)nc(NC(C)CCCN(CC)CC)n1 (stereo not drawn) [CWB012/01025, [2-(4-Diethylamino-1-methyl-butylamino)-6-methyl-pyrimidin-4-ylamino]-acetic acid ethyl ester]

remaining activity at 100 µM (Rac1; [5]): 108%
Structure (SMILES): CCN(CC)CCCCNc1nc(C)cc(NCCc2c[nH]c3ccc(O)cc23)n1 [CWB026/02057, 3-{2-[2-(4-Diethylamino-butylamino)-6-methyl-pyrimidin-4-ylamino]-ethyl}-1H-indol-5-ol]
